Data as given in article PMC12373846, “Hemoglobin as a pseudoperoxidase and drug target for oxidative stress-related diseases” (Signal Transduction and Targeted Therapy, 2025).
Where two headings read alike, the source gives them in different places.

Key:
APP/PS1 mice = test: Hippocampal slice electrophysiology, APP/PS1 mice; type: in vivo, mouse; settings: for tonic GABA current, granule cells: Fig. S10k; for sIPSC amplitude: Fig. S10l; for sIPSC frequency: Fig. S10m
Experimental: The mice were deeply anesthetized with 3% isoflurane followed by decapitation. The brain was quickly excised from the skull and submerged in a chilled cutting solution that contained 234 mM sucrose, 24 mM NaHCO3, 11 mM d(+)-glucose, 10 mM MgSO4, 2.5 mM KCl, […], and 0.5 mM CaCl2. Transverse hippocampi (300 µm thick) were prepared with a vibrating microtome (PRO7N; DSK) and transferred to an artificial cerebrospinal fluid (aCSF) solution that contained 130 mM NaCl, 24 mM NaHCO3, 1.25 mM NaH2PO4, 3.5 mM KCl, 1.5 mM CaCl2, 1.5 mM MgCl2, and 10 mM d(+)-glucose, pH 7.4. The slices were incubated at RT for at least 1 h before recording. All the solutions were saturated with 95% O2 and 5% CO2.
For recording of tonic GABA currents, slices were transferred to a recording chamber that was mounted on an upright Zeiss microscope and continuously perfused with aCSF solution. The slice was viewed with a 60× water immersion objective (numerical aperture = […]) with infrared differential interference contrast optics. […] Cellular morphology was visualized by a CMOS camera (Hamamatsu Photonics, Japan) and Imaging Workbench software (INDEC Biosystems). Whole-cell patch recordings were made from […] DG granule cells of the hippocampus. The holding potential was -70 mV. The pipette resistance was typically 6–8 MΩ, and the pipette was filled with an internal solution that contained (in mM): 135 CsCl; 4 NaCl; 0.5 CaCl2; 10 HEPES; 5 EGTA; 2 Mg-ATP; 0.5 Na2-GTP; 10 QX-314; pH adjusted to 7.2 with CsOH (278 to 285 mOsmol). The baseline current before the tonic current was measured was recorded with CNQX (20 µM) and D-AP5 (50 µM). The frequency and amplitude of spontaneous inhibitory postsynaptic currents before bicuculline (50 µM) administration were detected and measured via Mini Analysis (Synaptosoft, USA).
Dentate granule cell synaptic responses were elicited at a low frequency of 0.1 Hz by stimulating perforant path fibers. The stimulation was delivered over […] at intensities ranging from 0 to 1000 μA using a constant current isolation unit. A tungsten bipolar electrode was positioned in the molecular layer to stimulate the perforant path fibers. Recordings of the evoked excitatory postsynaptic potentials (EPSPs) […], and the pipette was filled with an internal solution that contained the following (in mM): 120 potassium gluconate; 10 KCl; 1 MgCl2; 0.5 EGTA; 40 HEPES; pH adjusted to 7.2 with KOH. The spiking probability was determined by the number of spikes generated per total stimulation. Electrical signals were digitized and sampled at […] with the Digidata 1550B data acquisition system and the Multiclamp 700B Amplifier (Molecular Devices, USA) via pClamp software.

A53T mice = test: Rotarod test, A53T PD mouse model; type: in vivo
Experimental: Stereotaxic injections were performed to deliver the AAV-CMV-A53T virus or PBS (control) into the right SNpc (AP, −3.2 mm; ML, −1.3 mm; DV, −4.0 mm from the bregma) of the mice. The injections were administered at a rate of 0.2 μl/min, with a total volume of 1 μl. The procedure was conducted under general anesthesia induced by 1% isoflurane.
The mice were habituated to the rotarod at speeds of 5, 10, and 15 rpm. Motor coordination and endurance were tested at 20 rpm for a maximum of 3 min. The latency to fall was recorded during the test to evaluate motor deficits associated with PD and the therapeutic effects of KDS12025.

[1] = PK-BBB brain-plasma permeability; type: in vivo, mouse; settings: 5 mg/kg IV
Experimental: For the brain-plasma permeability assessment, brain tissues from male ICR mice (n = 3 per time point) were collected following euthanasia by CO2 inhalation. Brains were excised, rinsed with saline, blotted dry, and transferred into pre-labeled Eppendorf tubes (one brain per tube). Samples were snap-frozen on dry ice and stored at -80 °C until analysis. Brain samples were processed using the same LC-MS/MS method. The brain-to-plasma concentration ratio was calculated as the concentration of drug in brain tissue divided by the corresponding plasma concentration.

## CNc1ccc(NCCc2ccccc2OC)cc1.Cl [KDS12025, N^1-(2-methoxyphenethyl)-N^4-methylbenzene-1,4-diamine hydrochloride salt]
APP/PS1 mice; 3mpk i.p.
  tonic GABA current, granule cells: 4.160±0.8926
  sIPSC amplitude: 36.09±4.601
  sIPSC frequency: 1.355±0.2694
APP/PS1 mice; 10mpk i.p.
  tonic GABA current, granule cells: 3.113±0.7279
  sIPSC amplitude: 26.02±1.734
  sIPSC frequency: 1.177±0.5985
APP/PS1 mice; 100–1000 μA, 3 mg/kg/day ad libitum, Fig. 5l left
  spike probability across stimulation intensities: 0.7455±0.1216
A53T mice; A53T+KDS12025 1 mg/kg/day ad libitum, Fig. 4h
  rotarod latency to fall: Control (225.3±30.6, n=6), A53T (93.8±19.6, n=7), A53T+KDS12025 (223.8±23.5, n=8) One-way ANOVA with Tukey's multiple comparisons test, F(2,18) = 9.52, p = 0.002 Control vs. A53T, p = 0.005; Control vs. A53T+KDS12025, p > 0.99; A53T vs. A53T+KDS12025, p = 0.003
A53T mice; A53T+shHbβ::CaMKII+KDS12025, Fig. 6q
  rotarod latency to fall: 139.0±51.1
A53T mice; A53T+shHbβ::GFAP+KDS12025, Fig. 6q
  rotarod latency to fall: 117.0±63.6
[1]; 2 h
  Brain concentration: BLQ
[1]; 4 h
  Brain concentration: BLQ
[1]; 8 h
  Brain concentration: BLQ
  Plasma concentration: BLQ
[1]; male, ICR, mouse, brain, 0.083 h, read-out: Brain concentration
  concentration at 0.083 h: 1680 ± 34.2 ng/g
[1]; male, ICR, mouse, brain, 0.083 h, read-out: Brain to plasma ratio (B/P)
  Kp at 0.083 h: 0.9 ± 0.17
[1]; male, ICR, mouse, brain, 0.25 h, read-out: Brain concentration
  concentration at 0.25 h: 589 ± 44.1 ng/g
[1]; male, ICR, mouse, brain, 0.25 h, read-out: Brain to plasma ratio (B/P)
  Kp at 0.25 h: 0.76 ± 0.04
[1]; male, ICR, mouse, brain, 0.5 h, read-out: Brain concentration
  concentration at 0.5 h: 234 ± 31.7 ng/g
[1]; male, ICR, mouse, brain, 0.5 h, read-out: Brain to plasma ratio (B/P)
  Kp at 0.5 h: 0.84 ± 0.19
[1]; male, ICR, mouse, brain, 1 h, read-out: Brain concentration
  concentration at 1 h: 65.6 ± 12.3 ng/g
[1]; male, ICR, mouse, brain, 1 h, read-out: Brain to plasma ratio (B/P)
  Kp at 1 h: 0.79 ± 0.25
[1]; male, ICR, mouse, brain, mice, read-out: brain t1/2 (PK-BBB) (converted)
  half-life: 14.4 min
[1]; male, ICR, mouse, plasma, 0.083 h, read-out: Plasma concentration
  concentration at 0.083 h: 1910 ± 323 ng/mL
[1]; male, ICR, mouse, plasma, 0.25 h, read-out: Plasma concentration
  concentration at 0.25 h: 782 ± 104 ng/mL
[1]; male, ICR, mouse, plasma, 0.5 h, read-out: Plasma concentration
  concentration at 0.5 h: 284 ± 45.5 ng/mL
[1]; male, ICR, mouse, plasma, 1 h, read-out: Plasma concentration
  concentration at 1 h: 84.7 ± 10.3 ng/mL
[1]; male, ICR, mouse, plasma, 2 h
  concentration at 2 h: 15.5 ± 7.09 ng/mL
[1]; male, ICR, mouse, plasma, 4 h
  concentration at 4 h: 2.99 ± 0.52 ng/mL
[1]; male, ICR, mouse, plasma, mice, read-out: plasma AUCall (PK-BBB)
  AUC: 721 ng·h/mL
[1]; male, ICR, mouse, plasma, mice, read-out: plasma Cl (PK-BBB) (converted)
  clearance: 115 mL/min/kg
[1]; male, ICR, mouse, plasma, mice, read-out: plasma t1/2 (PK-BBB) (converted)
  half-life: 39 min
[1]; mice
  brain AUCall (PK-BBB): 437.01 ng·h/mL
  brain Cmax (PK-BBB): 1680.64 ng/mL
